According to patent publication US20230151003A1, “COMPOUNDS AND METHODS OF USE” (Exelixis, Inc., priority 2020, published 2023):
pIC50: −log10 of the molar value. Counter-ions that a name gives are not always drawn.

Tests used:
KDR = KDR (Homo sapiens, UniProt P35968); experiment: KDR autophosphorylation ELISA in HUVEC cells; type: cell-based; set-up: endogenous in cells; host or cells: HUVEC (Lonza #C2519A); settings: Table 3 Cellular Activities, VEGF165-stimulated, phospho-KDR ELISA
Summary of the method: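 Phospho-KDR levels in lysates were measured by ELISA and referenced to stimulated-vehicle (100%) and unstimulated (0%) wells, IC50 from 4-parameter logistic fit. HUVEC, starved 24 h in serum-free medium, received an 8-point compound series (0.3% DMSO) for 1 h before a 5 min 100 ng/mL VEGF165 challenge.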

AXL = target: T1, AXL (Homo sapiens, UniProt P30530); experiment: AXL autophosphorylation ELISA in A-172 cells; type: cell-based; settings: Table 3 Cellular Activities, Gas6-stimulated, phospho-AXL ELISA
T1 construct: endogenous in cells; host or cells: A-172 glioblastoma cells (ATCC #CRL-1620)
T1 sequence (P30530 26-894): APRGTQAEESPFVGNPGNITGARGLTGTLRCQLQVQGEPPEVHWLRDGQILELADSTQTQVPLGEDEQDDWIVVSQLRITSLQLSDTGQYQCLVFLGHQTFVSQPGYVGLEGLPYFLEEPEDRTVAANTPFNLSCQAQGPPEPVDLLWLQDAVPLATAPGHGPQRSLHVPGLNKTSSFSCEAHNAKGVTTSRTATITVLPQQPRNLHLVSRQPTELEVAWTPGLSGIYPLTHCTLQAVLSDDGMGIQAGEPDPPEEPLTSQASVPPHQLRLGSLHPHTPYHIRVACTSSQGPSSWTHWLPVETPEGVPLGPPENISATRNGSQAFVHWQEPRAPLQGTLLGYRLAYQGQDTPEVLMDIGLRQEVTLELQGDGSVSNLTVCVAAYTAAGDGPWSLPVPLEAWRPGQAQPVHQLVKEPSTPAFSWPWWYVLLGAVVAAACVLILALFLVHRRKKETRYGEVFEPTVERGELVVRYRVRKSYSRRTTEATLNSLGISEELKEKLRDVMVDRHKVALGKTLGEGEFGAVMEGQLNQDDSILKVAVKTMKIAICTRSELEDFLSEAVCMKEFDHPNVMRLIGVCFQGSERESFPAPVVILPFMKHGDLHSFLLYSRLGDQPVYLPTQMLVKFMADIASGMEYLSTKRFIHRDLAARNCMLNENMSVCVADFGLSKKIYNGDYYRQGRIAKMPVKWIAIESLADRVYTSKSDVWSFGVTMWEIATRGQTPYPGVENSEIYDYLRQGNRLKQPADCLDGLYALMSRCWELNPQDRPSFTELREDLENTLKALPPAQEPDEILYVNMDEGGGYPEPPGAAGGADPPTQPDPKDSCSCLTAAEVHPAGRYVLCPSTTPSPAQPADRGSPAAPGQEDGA
Protocol: A-172 glioblastoma cells (ATCC #CRL-1620) were seeded at 2.5×10^5 cells/well onto 24-well plates (Greiner #662165), in DMEM (Thermo Fisher #11995-040) containing 10% FBS (Thermo Fisher #26140-079), 1% MEM NEAA (Thermo Fisher #11140-050), 1% GlutaMax (Thermo Fisher #35050-061), and 1% Penicillin Streptomycin (Thermo Fisher #15140-122). A-172 cells were incubated at 37° C., 5% CO2 for 24 h and then starved for 24 h in serum-free medium. Test compounds were serially diluted to produce an 8-point dose curve in fresh serum-free medium to a final concentration of 0.3% DMSO (vehicle) and added to the cells and incubated for 1 h. Cells were then stimulated with 1 μg/mL recombinant human Gas6 (R&D Systems #885-GSB-500) for 15 min, washed with cold PBS, and immediately lysed with 150 μL of cold 1× lysis buffer [20 mM Tris, 137 mM sodium chloride, 2 mM EDTA, 10% glycerol, 1% NP-40 alternative, 1 mM activated sodium orthovanadate, 1 mM PefaBloc SC (Sigma-Aldrich #11429868001), protease/phosphatase inhibitor tablet (Thermo Fisher #A32959)]. Lysates were collected and 100 μL/well added into the human phospho-AXL DuoSet IC ELISA (R&D Systems #DYC2228-2). Assay was performed according to manufacturer's instructions and sample phospho-AXL concentrations were extrapolated using human phospho-AXL control (R&D Systems #841645) as a standard. Positive control wells (100% activity) contained Gas6-stimulated, DMSO-treated cell lysates. Negative control wells (0% activity) contained Gas6-stimulated, reference inhibitor-treated cell lysates. IC50 values were calculated by nonlinear regression analysis using a 4-parameter logistic curve fit in ActivityBase XE (IDBS).

Chain of KDR (P35968 20-1356): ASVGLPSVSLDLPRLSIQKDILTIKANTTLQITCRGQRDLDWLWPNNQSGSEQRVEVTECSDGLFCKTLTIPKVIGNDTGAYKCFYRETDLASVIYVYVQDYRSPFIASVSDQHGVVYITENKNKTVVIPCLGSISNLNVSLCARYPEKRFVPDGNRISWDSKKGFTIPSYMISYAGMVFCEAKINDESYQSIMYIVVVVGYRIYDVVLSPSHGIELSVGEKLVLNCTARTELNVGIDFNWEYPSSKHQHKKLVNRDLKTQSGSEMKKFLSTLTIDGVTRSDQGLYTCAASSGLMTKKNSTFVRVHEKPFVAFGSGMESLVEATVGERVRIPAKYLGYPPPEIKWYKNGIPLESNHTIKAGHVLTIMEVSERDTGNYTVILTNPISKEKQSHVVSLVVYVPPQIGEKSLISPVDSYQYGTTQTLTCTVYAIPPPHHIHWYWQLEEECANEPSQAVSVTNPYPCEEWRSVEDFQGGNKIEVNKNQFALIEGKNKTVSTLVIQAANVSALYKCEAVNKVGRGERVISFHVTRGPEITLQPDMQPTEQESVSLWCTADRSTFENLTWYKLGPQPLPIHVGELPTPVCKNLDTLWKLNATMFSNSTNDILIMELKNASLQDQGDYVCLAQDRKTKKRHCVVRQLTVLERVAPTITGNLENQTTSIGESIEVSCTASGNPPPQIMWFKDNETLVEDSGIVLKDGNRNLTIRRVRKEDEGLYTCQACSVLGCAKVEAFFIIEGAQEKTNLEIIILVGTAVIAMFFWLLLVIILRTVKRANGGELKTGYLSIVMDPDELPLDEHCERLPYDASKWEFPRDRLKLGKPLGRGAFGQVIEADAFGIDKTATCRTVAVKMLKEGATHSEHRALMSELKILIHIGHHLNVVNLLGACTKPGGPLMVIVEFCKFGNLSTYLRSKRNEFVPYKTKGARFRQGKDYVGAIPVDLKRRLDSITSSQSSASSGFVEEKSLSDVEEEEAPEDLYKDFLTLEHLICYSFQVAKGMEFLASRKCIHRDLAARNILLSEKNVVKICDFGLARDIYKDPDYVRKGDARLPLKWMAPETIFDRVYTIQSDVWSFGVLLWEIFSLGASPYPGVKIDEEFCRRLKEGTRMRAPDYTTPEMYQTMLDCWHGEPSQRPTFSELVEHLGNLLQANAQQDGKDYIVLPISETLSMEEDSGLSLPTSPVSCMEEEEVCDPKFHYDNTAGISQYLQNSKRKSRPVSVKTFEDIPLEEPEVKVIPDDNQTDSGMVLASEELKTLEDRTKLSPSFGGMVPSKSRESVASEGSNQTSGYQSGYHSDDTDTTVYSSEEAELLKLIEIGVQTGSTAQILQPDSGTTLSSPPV

Work on `COc1cc2nccc(Oc3ccc(NC(=O)c4cnc(C)c(-c5ccco5)c4O)cc3)c2cc1OC` [Compound 258, N-[4-(6,7-Dimethoxyquinolin-4-yl)oxyphenyl]-5-(furan-2-yl)-4-hydroxy-6-methylpyridine-3-carboxamide] yielded a pIC50 (KDR) of no less than 7.00 and a pIC50 (AXL) of no less than 7.00.
`COc1cc2nccc(Oc3ccc(NC(=O)c4cccn(-c5ccncc5)c4=O)cc3F)c2nc1OC` [Compound 229, N-[4-[(6,7-Dimethoxy-1,5-naphthyridin-4-yl)oxy]-3-fluorophenyl]-2-oxo-1-pyridin-4-ylpyridine-3-carboxamide] was tested, and the pIC50 (KDR) was no less than 7.00 and the pIC50 (AXL) was no less than 7.00.
With `COc1ccc2nccc(Oc3ccc(NC(=O)c4ccc(C)n(-c5ccc(F)cn5)c4=O)cc3F)c2c1` [Compound 49, N-[3-Fluoro-4-(6-methoxyquinolin-4-yl)oxyphenyl]-1-(5-fluoropyridin-2-yl)-6-methyl-2-oxopyridine-3-carboxamide] the pIC50 (KDR) was no less than 7.00 and the pIC50 (AXL) was no less than 7.00.
`COc1cnc2c(Oc3ccc(NC(=O)c4cnc(C)c(-c5cccs5)c4O)cc3)ccnc2c1` [Compound 257, 4-Hydroxy-N-[4-[(7-methoxy-1,5-naphthyridin-4-yl)oxy]phenyl]-6-methyl-5-thiophen-2-ylpyridine-3-carboxamide] gave a pIC50 (KDR) of no less than 7.00 and a pIC50 (AXL) of no less than 7.00.
For `CCc1c(C(=O)Nc2ccc(Oc3ccnc4cc(OC)c(OC)nc34)c(F)c2)c(=O)c(-c2ccco2)c(C)n1C` [Compound 324, N-[4-[(6,7-Dimethoxy-1,5-naphthyridin-4-yl)oxy]-3-fluorophenyl]-2-ethyl-5-(furan-2-yl)-1,6-dimethyl-4-oxopyridine-3-carboxamide], the pIC50 (KDR) was no less than 7.00 and the pIC50 (AXL) was no less than 7.00.
`COc1cc2nccc(Oc3ccc(NC(=O)c4cc(C(C)=O)c(C)n(-c5ccco5)c4=O)cc3F)c2nc1OC` [Compound 236, 5-Acetyl-N-[4-[(6,7-dimethoxy-1,5-naphthyridin-4-yl)oxy]-3-fluorophenyl]-1-(furan-2-yl)-6-methyl-2-oxopyridine-3-carboxamide] gave a pIC50 (KDR) of 6.00 to 6.52 and a pIC50 (AXL) of no less than 7.00.
Work on `COc1cc2nccc(Oc3ccc(NC(=O)c4nccn(-c5ccc(F)cn5)c4=O)cc3F)c2nc1OC` [Compound 246, N-[4-[(6,7Dimethoxy-1,5-naphthyridin-4-yl)oxy]-3-fluorophenyl]-4-(5-fluoropyridin-2-yl)-3-oxopyrazine-2-carboxamide] yielded a pIC50 (KDR) of 6.52 to 7.00 and a pIC50 (AXL) of no less than 7.00.
`COc1cc2nccc(Oc3ccc(NC(=O)c4c(C)cc(C)n(-c5ccc(F)cn5)c4=O)cc3)c2nc1OC` [Compound 245, N-[4-[(6,7-Dimethoxy-1,5-naphthyridin-4-yl)oxy]phenyl]-1-(5-fluoropyridin-2-yl)-4,6-dimethyl-2-oxopyridine-3-carboxamide] gave a pIC50 (KDR) of no less than 7.00 and a pIC50 (AXL) of no less than 7.00.
In the case of `COc1cc2nccc(Oc3ccc(NC(=O)c4ccc(C)n(-c5cccnc5)c4=O)cc3F)c2nc1OC` [Compound 222, N-[4-[(6,7-Dimethoxy-1,5-naphthyridin-4-yl)oxy]-3-fluorophenyl]-6-methyl-2-oxo-1-pyridin-3-ylpyridine-3-carboxamide], the pIC50 (KDR) was no less than 7.00 and the pIC50 (AXL) was no less than 7.00.
`Cc1ccc(C(=O)Nc2ccc(Oc3ccnc4cccnc34)c(F)c2)c(=O)n1-c1ccc(F)cn1` [Compound 48, N-[3-Fluoro-4-(1,5-naphthyridin-4-yloxy)phenyl]-1-(5-fluoropyridin-2-yl)-6-methyl-2-oxopyridine-3-carboxamide] gave a pIC50 (KDR) of 6.00 to 6.52 and a pIC50 (AXL) of no less than 7.00.
Work on `COc1cc2nccc(Oc3ccc(NC(=O)c4ccc(C)n(-c5ccc(F)c(C)n5)c4=O)cc3F)c2nc1OC` [Compound 227, N-[4-[(6,7-Dimethoxy-1,5-naphthyridin-4-yl)oxy]-3-fluorophenyl]-1-(5-fluoro-6-methylpyridin-2-yl)-6-methyl-2-oxopyridine-3-carboxamide hydrochloride] yielded a pIC50 (KDR) of no less than 7.00 and a pIC50 (AXL) of no less than 7.00.
In the case of `COc1cc2nccc(Oc3ccc(NC(=O)c4c(C)n(C)cc(-c5ccc(F)cn5)c4=O)cc3F)c2nc1OC` [Compound 71, N-[4-[(6,7-Dimethoxy-1,5-naphthyridin-4-yl)oxy]-3-fluorophenyl]-5-(5-fluoropyridin-2-yl)-1,2-dimethyl-4-oxopyridine-3-carboxamide], the pIC50 (KDR) was 6.00 to 6.52 and the pIC50 (AXL) was no less than 7.00.
With `COc1cc2nccc(Oc3ccc(NC(=O)c4c(C)ccn(-c5ccc(F)cn5)c4=O)cc3F)c2nc1OC` [Compound 41, N-[4-[(6,7-Dimethoxy-1,5-naphthyridin-4-yl)oxy]-3-fluorophenyl]-1-(5-fluoropyridin-2-yl)-4-methyl-2-oxopyridine-3-carboxamide] the pIC50 (KDR) was no less than 7.00 and the pIC50 (AXL) was no less than 7.00.
`COc1cc2nccc(Oc3ccc(NC(=O)c4c5n(cc(-c6ccoc6)c4=O)CCOC5)cc3)c2nc1OC` [Compound 310, N-[4-[(6,7-Dimethoxy-1,5-naphthyridin-4-yl)oxy]phenyl]-7-(furan-3-yl)-8-oxo-3,4-dihydro-1H-pyrido[2,1-c][1,4]oxazine-9-carboxamide] gave a pIC50 (KDR) of 6.00 to 6.52 and a pIC50 (AXL) of no less than 7.00.
In the case of `COc1cc2nccc(Oc3ccc(NC(=O)c4ccc(C)n(-c5ncc(F)cc5C)c4=O)cc3F)c2nc1OC` [Compound 51, N-[4-[(6,7-Dimethoxy-1,5-naphthyridin-4-yl)oxy]-3-fluorophenyl]-1-(5-fluoro-3-methylpyridin-2-yl)-6-methyl-2-oxopyridine-3-carboxamide], the pIC50 (KDR) was no less than 7.00 and the pIC50 (AXL) was no less than 7.00.
Molecule `COc1cc2nccc(Oc3ccc(NC(=O)c4ccc(C)n(-c5ccncc5)c4=O)cc3F)c2nc1OC` [Compound 221, N-[4-[(6,7-Dimethoxy-1,5-naphthyridin-4-yl)oxy]-3-fluorophenyl]-6-methyl-2-oxo-1-pyridin-4-ylpyridine-3-carboxamid] has a pIC50 (KDR) of no less than 7.00 and a pIC50 (AXL) of no less than 7.00.
`COc1cc2c(Oc3ccc(NC(=O)c4c(C)ncc(-c5ccccn5)c4O)cc3F)ccnc2cn1` [Compound 223, N-[3-Fluoro-4-[(6-methoxy-1,7-naphthyridin-4-yl)oxy]phenyl]-4-hydroxy-2-methyl-5-pyridin-2-ylpyridine-3-carboxamide] was tested, and the pIC50 (KDR) was no less than 7.00 and the pIC50 (AXL) was no less than 7.00.
In the case of `COc1cc2nccc(Oc3ccc(NC(=O)c4c(C)n(C)c(C)c(-c5coc6ccccc56)c4=O)cc3F)c2nc1OC` [Compound 262, 5-(1-Benzofuran-3-yl)-N-[4-[(6,7-dimethoxy-1,5-naphthyridin-4-yl)oxy]-3-fluorophenyl]-1,2,6-trimethyl-4-oxopyridine-3-carboxamide], the pIC50 (KDR) was 6.00 to 6.52 and the pIC50 (AXL) was no less than 7.00.
In the case of `COc1cc2nccc(Oc3ccc(NC(=O)c4c5n(cc(-c6ccco6)c4=O)CCOC5)cc3)c2nc1OC` [Compound 298, N-[4-[(6,7-Dimethoxy-1,5-naphthyridin-4-yl)oxy]phenyl]-7-(furan-2-yl)-8-oxo-3,4-dihydro-1H-pyrido[2,1-c][1,4]oxazine-9-carboxamide], the pIC50 (KDR) was 6.00 to 6.52 and the pIC50 (AXL) was no less than 7.00.
`COc1cc2nccc(Oc3ccc(NC(=O)c4ccc(C)n(-c5cccnn5)c4=O)cc3F)c2nc1OC` [Compound 234, N-[4-[(6,7-Dimethoxy-1,5-naphthyridin-4-yl)oxy]-3-fluorophenyl]-6-methyl-2-oxo-1-pyridazin-3-ylpyridine-3-carboxamide] gave a pIC50 (KDR) of 6.52 to 7.00 and a pIC50 (AXL) of no less than 7.00.
